In paper PMC8845285, “Serotoninergic receptor ligands improve Tamoxifen effectiveness on breast cancer cells” (BMC Cancer, 2022):
Where two headings read alike, the source gives them in different places.

Experiments:
[1] = target: T1, serotonin 5-HT2A receptor (Rattus norvegicus, UniProt P14842); assay: radioligand binding assay, 5-HT2A, [3H]ketanserin; conditions: rat brain cortex; read-out: Ki ± SD, 5-HT2A [3H]Ketanserin
T1 construct: serotonin 5-HT2A receptor, [^3H]ketanserin, rat brain cortex; from tissue; host or cells: rat brain cortex
Procedure: (§1) All reactions were monitored by TLC, carried out on Merck 60G F254 plates with fluorescent indicator and the plates were visualized with UV light (254 nm). Each final compound and intermediate was purified by silica gel column chromatography (Macherey-Nagel 60 0,063–0,2 mm/70–230 mesh). […] Unless otherwise stated, all spectra were recorded in CDCl3. Chemical shifts are reported in ppm using Me4Si as internal standard. The following abbreviations are used to describe peak patterns when appropriate: s (singlet), d (doublet), t (triplet), m (multiplet), q (quartet), qt (quintet), dd (double doublet), ddd (double dd), bs (broad singlet). Mass spectra of the final products were performed on LTQ Orbitrap XL™ Fourier transform mass spectrometer (FTMS) equipped with ESI ION MAX™ source (Thermo Fisher, San José, USA). Melting points were determined using a Buchi B-540 hot-stage instrument and are uncorrected. […] All the compounds were dissolved in 5% DMSO. The following specific radioligands and tissue sources were used: (a)serotonin 5-HT1A receptor, [^3H]-8-OH-DPAT, rat brain cortex; (b) serotonin 5-HT2A receptor, [^3H]ketanserin, rat brain cortex; (c)serotonin 5-HT2C receptor, [^3H]mesulergine, rat brain cortex. Non-specific binding was determined as described in the experimental section, and specific binding as the difference between total and non-specific binding. […] The IC50 values obtained were used to calculate apparent inhibition constants (Ki) by the method of Cheng and Prussoff, from the following equation: Ki = IC50/(1 + S/KD) where S represents the concentration of the hot ligand used and KD its receptor dissociation constant (KD values, obtained by Scatchard analysis, were calculated for each labeled ligand). Radioligand binding assays for 5-HT1A were performed following a published procedure. 5-HT2A and 5-HT2C binding assays were performed reported by Herndon et al..

[2] = target: T2, serotonin 5-HT2C receptor (Rattus norvegicus, UniProt P08909); assay: radioligand binding assay, 5-HT2C, [3H]mesulergine; conditions: read-out: Ki ± SD, 5-HT2C [3H]Mesulergine
T2 construct: serotonin 5-HT2C receptor, [^3H]mesulergine, rat brain cortex; from tissue; host or cells: rat brain cortex
T2 sequence (P08909 33-460): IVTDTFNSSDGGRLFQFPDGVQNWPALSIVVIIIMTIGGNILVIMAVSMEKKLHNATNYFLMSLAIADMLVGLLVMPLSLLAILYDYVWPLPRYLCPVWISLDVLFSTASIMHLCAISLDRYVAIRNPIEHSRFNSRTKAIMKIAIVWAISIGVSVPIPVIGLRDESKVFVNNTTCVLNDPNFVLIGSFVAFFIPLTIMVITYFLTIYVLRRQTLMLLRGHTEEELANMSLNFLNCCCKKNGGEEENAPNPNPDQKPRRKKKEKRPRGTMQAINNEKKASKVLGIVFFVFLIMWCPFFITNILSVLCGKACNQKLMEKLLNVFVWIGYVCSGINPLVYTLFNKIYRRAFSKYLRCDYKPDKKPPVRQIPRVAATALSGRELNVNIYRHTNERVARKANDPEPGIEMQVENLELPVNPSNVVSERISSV
Procedure: as §1

MCF7 cells = assay: MCF7 cell viability, sulforhodamine B assay; assay type: cell-based, human; conditions: for IC50: Homo sapiens, MCF7
Procedure: (§2) MCF7 (ER^+, PR^+, HER2^−), SKBR3 (ER^−, PR^+, HER2^+) and MDA-MB231 (ER^−, PR^−, HER2^−) human BC cells and MCF10A non-cancer breast epithelial cells were available in our laboratory. MCF7, SKBR3 and MDA-MB231 cells were cultured in DMEM, supplemented with 10% FBS, 2 mM glutamine, 100 units/ml penicillin and 100 units/ml streptomycin. MCF10A cells were cultured in MEBM, supplemented with 0.4% BPE, 0.1% hEGF, 0.1%, Insulin, 0.1% Hydrocortisone and 0.1% GA-1000. […] Treatment with SER were carried out in culture conditions. Treatment with Tamoxifen and/or SER were carried out upon 48 h estrogen starvation in phenol-red free medium supplemented with 10% Charcoal Stripped (C/S) FBS, 2 mM glutamine, 100 units/ml penicillin and 100 units/ml streptomycin.
(§3) Cells were fixed with 50% trichloroacetic acid for at least 2 h at 4 °C, washed with distilled and de-ionized water, air-dryed and stained 30 min with 0.4% sulforhodamine B in 1% acetic acid. Unbound dye was removed and 10 mM tris-HCl solution (pH 7.5) was added to dissolve the protein-bound dye. Cell survival was assessed by optical density determination at 510 nm using a microplate reader.
After 48 and 72 h, cell viability was assessed by sulforhodamine B assay (see Methods).

SKBR3 cells = assay: SKBR3 cell viability, sulforhodamine B assay; assay type: cell-based, human; conditions: for IC50: Homo sapiens, SK-BR-3, 72 h treatment
Procedure: as §2, §3
Fig. 3 Effect of SER on SKBR3 cell viability. […] Cell viability was assessed, after 72 h, by sulforhodamine B assay (see Methods).

MDA-MB231 cells = assay: MDA-MB231 cell viability, sulforhodamine B assay; assay type: cell-based, human; conditions: for IC50: Homo sapiens, MDA-MB-231, 72 h treatment
Procedure: as §2, §3
Cell viability was assessed, after 72 h, by sulforhodamine B assay (see Methods).

[3] = target: T3, serotonin 5-HT1A receptor (Rattus norvegicus, UniProt P19327); assay: radioligand binding assay, 5-HT1A, [3H]-8-OH-DPAT; conditions: rat brain cortex; read-out: Ki ± SD, 5-HT1A [3H]8OH-DPAT
T3 construct: serotonin 5-HT1A receptor, [^3H]-8-OH-DPAT, rat brain cortex; from tissue; host or cells: rat brain cortex
T3 sequence (P19327 1-422): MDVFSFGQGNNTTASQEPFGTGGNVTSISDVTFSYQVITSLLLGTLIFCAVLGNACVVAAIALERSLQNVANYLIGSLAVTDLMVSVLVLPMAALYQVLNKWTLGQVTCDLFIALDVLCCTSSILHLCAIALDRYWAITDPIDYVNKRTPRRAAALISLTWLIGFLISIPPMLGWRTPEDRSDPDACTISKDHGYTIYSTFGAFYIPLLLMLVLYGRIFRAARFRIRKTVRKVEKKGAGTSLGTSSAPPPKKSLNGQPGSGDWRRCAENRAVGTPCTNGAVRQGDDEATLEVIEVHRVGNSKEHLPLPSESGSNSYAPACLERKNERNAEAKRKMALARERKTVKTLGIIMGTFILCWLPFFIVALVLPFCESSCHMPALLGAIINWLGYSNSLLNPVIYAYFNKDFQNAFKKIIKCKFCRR
Procedure: as §1

[4] = 48 h treatment, read-out: IC50 MCF7 48h
[5] = 72 h treatment, read-out: IC50 MCF7

T1 sequence (P14842 whole entry): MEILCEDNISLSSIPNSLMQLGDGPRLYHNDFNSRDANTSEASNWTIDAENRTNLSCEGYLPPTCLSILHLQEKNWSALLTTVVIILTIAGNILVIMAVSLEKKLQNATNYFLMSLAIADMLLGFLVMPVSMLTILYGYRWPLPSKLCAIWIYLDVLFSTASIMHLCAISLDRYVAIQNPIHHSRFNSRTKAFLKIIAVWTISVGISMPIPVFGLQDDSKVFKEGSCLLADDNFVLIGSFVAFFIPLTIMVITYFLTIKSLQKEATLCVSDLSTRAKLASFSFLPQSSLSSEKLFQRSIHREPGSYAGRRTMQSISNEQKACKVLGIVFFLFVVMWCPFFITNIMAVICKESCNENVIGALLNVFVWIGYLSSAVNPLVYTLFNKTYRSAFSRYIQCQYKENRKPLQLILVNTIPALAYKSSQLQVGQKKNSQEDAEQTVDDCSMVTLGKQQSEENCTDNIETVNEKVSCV

| Compound | Ki [1] | Ki ([2]; rat brain cortex) | IC50 (MCF7 cells; [4]) | IC50 (MCF7 cells; [5]) | IC50 (SKBR3 cells) | IC50 (MDA-MB231 cells) | Ki [3] | Ki [2] | inhibition of MDA-MB231 cell growth (MDA-MB231 cells; 100 μM, 72 h) | reduction of MCF7 cell viability (MCF7 cells; 50 μM, 72 h) | reduction of SKBR3 cell viability (SKBR3 cells; 50 μM, 72 h) |
| --- | --- | --- | --- | --- | --- | --- | --- | --- | --- | --- | --- |
| O=C(NCCN1CCN(C(c2ccc(F)cc2)c2ccc(F)cc2)CC1)c1ccccn1 [SER177] | 0.218 ± 0.0093 µM | 0.0008 ± 5e-05 µM | 253 ± 65.6 µM | 66.6 ± 16.2 µM | 43.3 ± 11.1 µM | 198 ± 66.7 µM | – | – | – | – | – |
| O=C(NCCN1CCN(c2cccc(C(F)(F)F)c2)CC1)c1ccccn1 [SER167] | 0.0485 ± 0.0027 µM | – | 151 ± 41.6 µM | 54.2 ± 10 µM | 152 ± 21.6 µM | 223 ± 154 µM | 1.32 ± 0.012 µM | 0.14 ± 0.0025 µM | – | – | – |
| O=C(NCCCN1CCN(C(=O)c2ccco2)CC1)c1ccccn1 [SER196] | 0.00168 ± 0.0004 µM | – | 206 ± 50.7 µM | 124 ± 31 µM | 202 ± 31.2 µM | 306 ± 65.8 µM | – | – | – | – | – |
| O=C(c1ccco1)N1CCN(CC(O)CON2C(=O)C3C4C=CC(C4)C3C2=O)CC1 (stereo not shown) [SER31, 4-[3-[4-(2-furoyl)piperazin-1-yl]propoxy-2-ol]-4-aza-tricyclo [5.2.1.02,6]dec-8-ene-3,5-dione] | > 10 µM | 0.00504 ± 0.000227 µM | 336 ± 153 µM | 99.2 ± 33 µM | 100 ± 30.8 µM | 136 ± 38.6 µM | 1.05 ± 0.000231 µM | – | able to inhibit | – | – |
| O=C(NCCCN1CCN(C(c2ccc(F)cc2)c2ccc(F)cc2)CC1)c1ccccn1 [SER198] | 0.0778 ± 0.0021 µM | – | 106 ± 18.4 µM | 10.2 ± 2.5 µM | 67.7 ± 8.02 µM | 91.3 ± 18.6 µM | 0.0527 ± 0.0027 µM | 0.117 ± 0.0061 µM | – | ≈ 70% | ≈ 50% |
| O=C(NCCCN1CCN(Cc2ccc3c(c2)OCO3)CC1)c1ccccn1 [SER195] | 0.0453 ± 0.0057 µM | – | 156 ± 36.1 µM | 53.3 ± 8.29 µM | 150 ± 26 µM | 322 ± 118 µM | – | – | – | – | – |
